Laboratory results from PubChem BioAssay (NCI).
Where “and” joins values, the source holds several entries; their conditions need not be identical. Equal entries are not always repeated.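 48-hour exposure; five concentrations; linearly interpolated endpoints. The concentration for 50% growth inhibition is given as GI50. TGI: total growth inhibition.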

Key:
Test in all cases: DTP human tumour cell line panel, 48 h
A549 NSCLC = system: A549 NSCLC
ACHN renal = system: ACHN renal
CAKI-1 renal = system: CAKI-1 renal
HS 578T breast = system: HS 578T breast
MCF7 breast = system: MCF7 breast
NCI-H460 lung = system: NCI-H460 lung
OVCAR-4 ovarian = system: OVCAR-4 ovarian
SF-295 CNS = system: SF-295 CNS
SK-OV-3 ovarian = system: SK-OV-3 ovarian
UO-31 renal = system: UO-31 renal

| SMILES | GI50 (A549 NSCLC) | TGI (A549 NSCLC) | GI50 (ACHN renal) | TGI (ACHN renal) | GI50 (CAKI-1 renal) | TGI (CAKI-1 renal) | GI50 (HS 578T breast) | TGI (HS 578T breast) | GI50 (MCF7 breast) | TGI (MCF7 breast) | GI50 (NCI-H460 lung) | TGI (NCI-H460 lung) | GI50 (OVCAR-4 ovarian) | TGI (OVCAR-4 ovarian) | GI50 (SF-295 CNS) | TGI (SF-295 CNS) | GI50 (SK-OV-3 ovarian) | TGI (SK-OV-3 ovarian) | GI50 (UO-31 renal) | TGI (UO-31 renal) |
| --- | --- | --- | --- | --- | --- | --- | --- | --- | --- | --- | --- | --- | --- | --- | --- | --- | --- | --- | --- | --- |
| COc1cc(C(=O)/C=C/c2cc(C(=O)c3cc(OC)c(OC)c(OC)c3)ccc2OC)ccc1N | 3.2 µM | 29 µM | 1.08 µM | 4.49 µM | 0.669 µM | 19.4 µM | 1.39 µM | > 100 µM | 0.322 µM | 2.28 µM | 2.13 µM | 7.61 µM | 0.982 µM | > 100 µM | 2.3 µM | 17.4 µM | 3.16 µM | 16.1 µM | 0.762 µM | 2.12 µM |
| CCCCCC(O)C1C(=O)OC(C)C(O)/C=C/C=C/C=C/C=C\C=C(\C)C(O)CC(O)CC(O)CC(O)CC(O)CC(O)CC1O (stereo not given) | > 100 µM | > 100 µM | > 100 µM | > 100 µM | > 100 µM | > 100 µM | > 100 µM | > 100 µM | > 100 µM | > 100 µM | > 100 µM | > 100 µM | > 100 µM | 26.3 µM and > 100 µM | > 100 µM | > 100 µM | > 100 µM | > 100 µM | > 100 µM | > 100 µM |
| C/C(=N\NC(=O)c1ccncc1)c1ccc2ccccc2c1O | – | > 100 µM | – | > 100 µM | – | > 84.5 µM | – | 98.1 µM | – | 14 µM | – | 20.4 µM | – | > 65.2 µM | – | 20.7 µM | – | > 60.7 µM | – | 38.5 µM |
| CCSCC(N)C(=O)O (stereo not given) | – | > 100 µM | – | > 100 µM | – | > 100 µM | – | > 100 µM | – | > 100 µM | – | > 100 µM | – | > 100 µM | – | > 100 µM | – | > 100 µM | – | > 100 µM |
| COc1ccc(NC(=O)n2nc(N)c3ccccc32)cc1OC | 45.8 µM | > 100 µM | 58.3 µM | > 100 µM | > 100 µM | > 100 µM | 43.3 µM | > 100 µM | 29.5 µM | > 100 µM | 34.5 µM | > 100 µM | 63.2 µM | > 100 µM | 37.6 µM | > 100 µM | > 100 µM | > 100 µM | 28.5 µM | > 100 µM |
| Cc1ccc(NC(=O)NC(=O)c2ccc([N+](=O)[O-])cc2[N+](=O)[O-])cc1Oc1ncc(Cl)cn1 | – | > 40.2 µM | – | > 100 µM | – | 62.9 µM | – | 10.8 µM | – | 20.5 µM | – | 14.8 µM | – | 26 µM | – | 43.5 µM | – | 25.7 µM | – | 17.3 µM |
| CC(=O)Nc1ccc(Sc2ccc([N+](=O)[O-])o2)cc1 | 6.37 µM | 23.3 µM | 1.62 µM | 4.29 µM | 1.41 µM | 3.06 µM | 3.87 µM | 24.9 µM | 1.88 µM | 6.92 µM | 2.83 µM | 8.93 µM | 2.27 µM | 5.1 µM | 10.4 µM | 23.5 µM | 8.37 µM | 20.6 µM | 3.9 µM | 13 µM |
| C=C(C)[C@@H]1CC[C@]2(C)[C@H](C(=O)C=C3[C@@H]4C[C@](C)(C(=O)N5CCN(C)CC5)CC[C@]4(C)CC[C@]32C)[C@@]1(C)CCC#N | 7.12 µM | 14.5 µM | 7.02 µM | 13.5 µM | 6.27 µM | 12.5 µM | 7.99 µM | 20.9 µM | 5.45 µM | 12.5 µM | 6.48 µM | 13.9 µM | 6.21 µM | 13.6 µM | 7.75 µM | 15.2 µM | 6.03 µM | 12.5 µM | 5.37 µM | 11.3 µM |
| O=C1C(Br)=CC2(C=C1Br)CCN=c1c2c(O)c2nc3ccccc3c3ccnc1c23 | 6.69 µM | 28.4 µM | 0.753 µM | 1.7 µM | 1.01 µM | 3.29 µM | 4 µM | 17.1 µM | 0.765 µM | 2.69 µM | 2.48 µM | 10.6 µM | 0.788 µM | 2.22 µM | 5.97 µM | 19.3 µM | 5.03 µM | 11 µM | 0.761 µM | 1.55 µM |
| COC(=O)c1ccc2c(c1)nc(-c1cc3ccccc3[nH]c1=O)n2-c1cc(C(C)(C)C)[nH]n1 | > 100 µM | > 100 µM | > 100 µM | > 100 µM | 1.24 µM | > 95.1 µM | 0.574 µM | > 58.4 µM | > 100 µM | > 100 µM | 0.784 µM | > 100 µM | > 100 µM | > 100 µM | 2.14 µM | > 50.5 µM | > 53.4 µM | > 100 µM | 0.526 µM | > 100 µM |
| CS(=O)CCCCCN=C=S (stereo not given) | 7.52 µM | 24.2 µM | 4.07 µM | 16.5 µM | 3.69 µM | 13.8 µM | 6.38 µM | 36 µM | 2.3 µM | 13.2 µM | 2.53 µM | 6.64 µM | 5.11 µM | 22.8 µM | 17.1 µM | 31.4 µM | 13.7 µM | 27.3 µM | 4 µM | 17.2 µM |
| COc1ccc(C(=O)c2ccc(OC)c(OC)c2OC)cc1 | 2.01 µM | > 100 µM | 6.56 µM | > 100 µM | 1.21 µM | > 100 µM | 0.915 µM | 3.65 µM | 0.697 µM | > 100 µM | 1.99 µM | 11.6 µM | 7.08 µM | > 100 µM | 0.956 µM | 5.07 µM | 2.06 µM | 13.1 µM | 4.65 µM | > 100 µM |
| CCCCCCCCCCCCCCCCCC1=NCCN1CS(=O)(=O)O | 12.5 µM | 31.2 µM | 13 µM | 28.8 µM | 9.3 µM | 22.6 µM | 11.6 µM | 40 µM | 13.4 µM | 35.2 µM | 3.24 µM | 8.39 µM | 14.9 µM | 33 µM | 3.55 µM | 16.5 µM | 18.1 µM | 39.4 µM | 6.28 µM | 23 µM |
| CC(C)[C@@]12C[C@@H](OC(=O)[C@H]3CO3)[C@@](C)(O1)[C@@H]1CC[C@@H](C)[C@H]1[C@@H]2OC(=O)/C=C/c1ccccc1 | 16.7 µM | 54.6 µM | 0.108 µM | 3.07 µM | 6.83 µM | > 100 µM | 0.0736 µM | 0.501 µM | 9.33 µM | > 100 µM | 17.2 µM | 42.5 µM | 11.5 µM | 30.2 µM | 15.3 µM | 35.5 µM | 18.2 µM | 45.8 µM | 0.177 µM | 0.416 µM |
| O=C1OCC(c2cccs2)=C1Cl | 41.1 µM | > 100 µM | 56.7 µM | > 100 µM | > 100 µM | > 100 µM | 39 µM | > 100 µM | 39.3 µM | > 100 µM | 56.8 µM | > 100 µM | 73.8 µM | > 100 µM | 80.9 µM | > 100 µM | > 100 µM | > 100 µM | 89 µM | > 100 µM |
| Cc1nc2sccn2c(=O)c1CCN1CCC(=C(c2ccc(F)cc2)c2ccc(F)cc2)CC1 | 12.9 µM | 29.1 µM | 13.4 µM | 26.3 µM | 12.9 µM | 25.7 µM | 16.3 µM | 43.3 µM | 6.88 µM | 23 µM | 7.49 µM | 22.7 µM | 12.6 µM | 27.9 µM | 13 µM | 28.7 µM | 16.3 µM | 30.7 µM | 4.06 µM | 18.8 µM |
| CCOC(=O)c1sc2nc3sc(N=Nc4ccc(Cl)cc4)c(O)n3c(=S)c2c1C | 35 µM | > 100 µM | 16.5 µM | 54.3 µM | 28.1 µM | 57.3 µM | 23.8 µM | 68.4 µM | 21.4 µM | > 100 µM | 25.9 µM | > 100 µM | 47.4 µM | > 100 µM | 31 µM | > 100 µM | 31 µM | > 100 µM | 53.6 µM | > 100 µM |
| COc1cc(NCCCCN=C(N)NC(N)=NC(C)C)c2ncccc2c1 | 35.4 µM | > 100 µM | > 73.7 µM | > 100 µM | > 100 µM | > 100 µM | 5.51 µM | 27.1 µM | 0.0516 µM | 0.327 µM | 5.97 µM | 20 µM | 0.0797 µM | 2.15 µM | 23 µM | > 91.1 µM | 34.4 µM | > 100 µM | 99 µM | > 100 µM |
| NC(=O)C1=NNc2ccccc2C(=O)N1c1ccccc1 | – | > 100 µM | – | > 100 µM | – | > 100 µM | – | > 100 µM | – | > 100 µM | – | > 100 µM | – | > 100 µM | – | > 100 µM | – | > 100 µM | – | > 100 µM |
